Among the data in patent publication US20120190666A1, “Heteroaryl Compounds as PIKK Inhibitors” (Amgen Inc., priority 2009, published 2012) are IC50 values, retold here.

T1 sequence (P42336 whole entry): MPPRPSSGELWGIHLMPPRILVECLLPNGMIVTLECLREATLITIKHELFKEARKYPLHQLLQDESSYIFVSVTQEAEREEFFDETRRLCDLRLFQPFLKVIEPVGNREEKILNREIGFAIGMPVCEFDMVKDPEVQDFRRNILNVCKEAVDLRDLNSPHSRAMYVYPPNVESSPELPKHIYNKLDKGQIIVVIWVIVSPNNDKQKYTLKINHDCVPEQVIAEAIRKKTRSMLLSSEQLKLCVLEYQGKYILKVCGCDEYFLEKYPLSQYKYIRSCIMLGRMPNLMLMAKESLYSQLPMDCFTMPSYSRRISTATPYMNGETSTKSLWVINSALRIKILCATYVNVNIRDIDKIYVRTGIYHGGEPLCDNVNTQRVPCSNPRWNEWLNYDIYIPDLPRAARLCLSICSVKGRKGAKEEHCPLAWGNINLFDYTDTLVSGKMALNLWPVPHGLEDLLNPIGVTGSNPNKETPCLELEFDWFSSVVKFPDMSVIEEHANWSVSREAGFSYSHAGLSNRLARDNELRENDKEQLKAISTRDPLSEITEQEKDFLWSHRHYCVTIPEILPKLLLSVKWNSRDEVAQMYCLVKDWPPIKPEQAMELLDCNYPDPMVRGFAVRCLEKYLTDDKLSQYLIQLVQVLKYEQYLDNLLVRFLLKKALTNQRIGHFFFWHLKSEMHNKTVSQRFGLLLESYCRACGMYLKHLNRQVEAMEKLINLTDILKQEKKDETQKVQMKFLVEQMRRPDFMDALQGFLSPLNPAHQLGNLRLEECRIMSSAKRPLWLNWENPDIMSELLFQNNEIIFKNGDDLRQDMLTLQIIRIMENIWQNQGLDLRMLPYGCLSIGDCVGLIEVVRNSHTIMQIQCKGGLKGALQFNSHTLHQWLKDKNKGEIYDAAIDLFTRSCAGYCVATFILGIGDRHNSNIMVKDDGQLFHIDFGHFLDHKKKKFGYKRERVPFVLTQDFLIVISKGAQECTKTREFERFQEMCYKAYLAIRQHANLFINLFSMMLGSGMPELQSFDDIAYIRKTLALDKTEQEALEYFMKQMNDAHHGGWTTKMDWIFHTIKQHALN
T1 sequence (P27986 whole entry partner): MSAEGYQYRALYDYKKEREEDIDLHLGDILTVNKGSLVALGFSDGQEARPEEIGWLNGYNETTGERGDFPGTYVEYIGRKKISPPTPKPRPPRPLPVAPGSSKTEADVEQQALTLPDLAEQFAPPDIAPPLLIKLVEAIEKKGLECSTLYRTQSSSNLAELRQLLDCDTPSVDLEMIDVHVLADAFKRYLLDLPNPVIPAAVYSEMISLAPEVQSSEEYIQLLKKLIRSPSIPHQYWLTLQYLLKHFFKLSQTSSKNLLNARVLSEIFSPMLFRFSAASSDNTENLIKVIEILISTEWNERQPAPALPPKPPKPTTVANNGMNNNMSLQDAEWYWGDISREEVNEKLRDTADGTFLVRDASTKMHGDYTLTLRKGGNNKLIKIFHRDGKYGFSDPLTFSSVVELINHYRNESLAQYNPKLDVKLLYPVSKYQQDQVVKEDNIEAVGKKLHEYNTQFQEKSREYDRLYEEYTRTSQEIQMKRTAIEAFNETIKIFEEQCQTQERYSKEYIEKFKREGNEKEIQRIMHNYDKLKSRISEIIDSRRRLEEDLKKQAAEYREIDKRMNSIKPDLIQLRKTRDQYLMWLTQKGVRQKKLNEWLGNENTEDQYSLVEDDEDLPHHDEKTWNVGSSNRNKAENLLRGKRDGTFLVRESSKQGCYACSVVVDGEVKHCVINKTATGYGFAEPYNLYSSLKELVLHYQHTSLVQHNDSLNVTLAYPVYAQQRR

This experiment has as its target T1, PI3Kα (Homo sapiens, UniProt P42336).
T1 construct: Full length p110 subunits of PI3K α, β and δ, N-terminally labeled with polyHis tag; polyHis (N); made in house; host or cells: Sf9 insect cells (baculovirus)
Put plainly: In vitro PI3K AlphaScreen assay, PI3Kα. The following applies: PI(4,5)P2 substrate, 20 minutes at room temperature, read-out: P13Kalpha IC50 um. Format: biochemical. The method, boiled down: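 PI3Kα at 1.6 nM (2× stock) with PI(4,5)P2 10 μM and ATP 20 μM (2× stocks) in Tris pH 7, MgCl2, cholate, NaCl, DTT; 20 min at room temperature. Quenched with biotin-IP4/streptavidin-Donor beads, then GST-PIP3-binding protein/anti-GST Acceptor beads, 1.5 h dark; PIP3 formation read as loss of AlphaScreen signal.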
On the technique in general: In Alpha technology, singlet oxygen from a donor bead excites a nearby acceptor bead.
The term IC50 denotes the concentration that gives 50% inhibition. With `Cc1nc(NC(=O)CC#N)cc(-c2c(Nc3ccn(C)n3)nc3ccccn23)n1` [Cpd 126, 2-cyano-N-(2-methyl-6-(2-((1-methyl-1H-pyrazol-3-yl)amino)imidazo[1,2-a]pyridin-3-yl)-4-pyrimidinyl)acetamide], the IC50 was determined as 5.34 µM. As to `Cc1nc(NC(=O)CC(F)(F)F)cc(-c2c(Nc3ccn(C)n3)nc3cccnn23)n1` [Cpd 134, 3,3,3-trifluoro-N-(2-methyl-6-(2-((1-methyl-1H-pyrazol-3-yl)amino)imidazo[1,2-b]pyridazin-3-yl)-4-pyrimidinyl)propanamide], the IC50 turned out to be 2.08 µM. The figure for `Cc1nc(Nc2ccc(N3CCOC(C)C3)nn2)cc(-c2c(Nc3cc[nH]n3)nc3cccnn23)n1` (stereo not shown) [Cpd 140, 3-(2-methyl-6-((6-(2-methyl-4-morpholinyl)-3-pyridazinyl)amino)-4-pyrimidinyl)-N-1H-pyrazol-3-ylimidazo[1,2-b]pyridazin-2-amine] is 0.06 µM; for `Cc1nc(N)cc(-c2c(Nc3cccc(N4CCN(C)CC4)c3)nc3cccnn23)n1` [Cpd 151, 3-(6-amino-2-methyl-4-pyrimidinyl)-N-(3-(4-methyl-1-piperazinyl)-phenyl)imidazo[1,2-b]pyridazin-2-amine] it is 9.52 µM; for `Cc1nc(N)nc(-c2c(Nc3cc[nH]n3)nc3ccc(Nc4ccncc4)cn23)n1` [Cpd 166] it is 5.65 µM. Take `Cc1nc(N)nc(-c2c(Nc3cc[nH]n3)nc3ccc(-c4ccc5c(c4)CCNC5=O)cn23)n1` [Cpd 175, 6-(3-(4-amino-6-methyl-1,3,5-triazin-2-yl)-2-(1H-pyrazol-3-ylamino)imidazo[1,2-a]pyridin-6-yl)-3,4-dihydro-1(2H)-isoquinolinone]: the concentration for half-maximal inhibition (IC50) worked out at 0.14 µM. Turning to `Cc1nc(N)nc(-c2c(Nc3cc[nH]n3)nc3ccc(-c4ccc(C(=O)O)cc4C)cn23)n1` [Cpd 177, 4-(3-(4-amino-6-methyl-1,3,5-triazin-2-yl)-2-(1H-pyrazol-3-ylamino)imidazo[1,2-a]pyridin-6-yl)-3-methylbenzoic acid], the IC50 stood at 0.08 µM.

Take `Cc1nc(N)nc(-c2c(Nc3cc[nH]n3)nc3cc(C4=CCN(C(=O)OC(C)(C)C)CC4)ccn23)n1` [Cpd 183, tert-butyl 4-(3-(4-amino-6-methyl-1,3,5-triazin-2-yl)-2-(1H-pyrazol-3-ylamino)imidazo[1,2-a]pyridin-7-yl)-3,6-dihydro-1(2H)-pyridinecarboxylate]: the half-inhibitory concentration (IC50) was 0.05 µM. Consider `COCCOc1ccn2c(-c3nc(C)nc(N)n3)c(Nc3cc[nH]n3)nc2c1` [Cpd 185, 3-(4-amino-6-methyl-1,3,5-triazin-2-yl)-7-(2-methoxyethoxy)-N-1H-pyrazol-3-ylimidazo[1,2-a]pyridin-2-amine], for which the half-maximal inhibitory concentration (IC50) came to 0.7 µM. `Cc1nc(N)nc(-c2c(Nc3cc[nH]n3)nc3cc(OCCN4CCCC4)ccn23)n1` [Cpd 188]: the half-maximal inhibitory concentration (IC50) came out at 7.01 µM. The figure for `Cc1nc(N)nc(-c2c(Nc3ccn(C(=O)Nc4ccccc4)n3)nc3ccccn23)n1` [Cpd 204, 3-((3-(4-amino-6-methyl-1,3,5-triazin-2-yl)imidazo[1,2-a]pyridin-2-yl)amino)-N-phenyl-1H-pyrazole-1-carboxamide] is 3 µM. For the compound `Cc1nc(N)nc(-c2c(Nc3cnn(C(=O)Oc4ccccc4)c3)nc3ccccn23)n1` [Cpd 209, phenyl 4-((3-(4-amino-6-methyl-1,3,5-triazin-2-yl)imidazo[1,2-a]pyridin-2-yl)amino)-1H-pyrazole-1-carboxylate], the IC50 was found to be 0.83 µM.

For the compound `Cc1nc(N)cc(-c2c(Nc3ccn(-c4ccccn4)n3)nc3ccccn23)n1` [Cpd 216, 3-(6-amino-2-methyl-4-pyrimidinyl)-N-(1-(2-pyridinyl)-1H-pyrazol-3-yl)imidazo[1,2-a]pyridin-2-amine], the concentration for half-maximal inhibition (IC50) stood at 1.37 µM.

Turning to `Cc1nc(N)cc(-c2c(Nc3ccn(C(=O)NCc4ccccc4)n3)nc3ccccn23)n1` [Cpd 222, 3-((3-(6-amino-2-methyl-4-pyrimidinyl)imidazo[1,2-a]pyridin-2-yl)amino)-N-benzyl-1H-pyrazole-1-carboxamide], the IC50 is 1.2 µM. With `Cc1nc(N)cc(-c2c(Nc3ccn(C(=O)Nc4ccccc4C(F)(F)F)n3)nc3cccnn23)n1` [Cpd 239, 3-((3-(6-amino-2-methyl-4-pyrimidinyl)imidazo[1,2-b]pyridazin-2-yl)amino)-N-(2-(trifluoromethyl)phenyl)-1H-pyrazole-1-carboxamide], the IC50 was determined as 3.01 µM.

In the case of `Cc1nc(N)cc(-c2c(Nc3ccn(C(=O)Nc4cc(F)cc(F)c4)n3)nc3cccnn23)n1` [Cpd 242, 3-((3-(6-amino-2-methyl-4-pyrimidinyl)imidazo[1,2-b]pyridazin-2-yl)amino)-N-(3,5-difluorophenyl)-1H-pyrazole-1-carboxamide], the IC50 was determined as 2.32 µM. On to `Cc1nc(N)cc(-c2c(Nc3ccnn3C(=O)N3CCC3)nc3cccnn23)n1` [Cpd 257, 3-(6-amino-2-methyl-4-pyrimidinyl)-N-(1-(1-azetidinylcarbonyl)-1H-pyrazol-5-yl)imidazo[1,2-b]pyridazin-2-amine], for which the IC50 was 46.5 µM.

On to `COc1ccc(-c2ccc3nc(Nc4ccn[nH]4)c(-c4nc(C)nc(N)n4)n3c2)cc1CO` [Cpd 286], for which the half-maximal inhibitory concentration (IC50) came out at 0.13 µM. With `Cc1nc(N)nc(-c2c(Nc3ccn[nH]3)nc3ccc(CCC(O)CO)cn23)n1` (stereo not shown) [Cpd 291, 4-(3-(4-amino-6-methyl-1,3,5-triazin-2-yl)-2-(1H-pyrazol-5-ylamino)-midazo[1,2-a]pyridin-6-yl)-1,2-butanediol], the half-maximal inhibitory concentration (IC50) is 0.17 µM. As for `Cc1nc(N)nc(-c2c(Nc3cc[nH]n3)nc3ccc(-c4ccc(S(C)(=O)=O)cc4)cn23)n1` [Cpd 344, 3-(4-amino-6-methyl-1,3,5-triazin-2-yl)-6-(4-(methylsulfonyl)phenyl)-N-1H-pyrazol-3-ylimidazo[1,2-a]pyridin-2-amine], the IC50 was 0.07 µM. Take `CNS(=O)(=O)c1ccc(-c2ccc3nc(Nc4cc[nH]n4)c(-c4nc(C)nc(N)n4)n3c2)cc1` [Cpd 351, 4-(3-(4-amino-6-methyl-1,3,5-triazin-2-yl)-2-(1H-pyrazol-3-ylamino)imidazo[1,2-a]pyridin-6-yl)-N-methylbenzenesulfonamide]: the IC50 came to 0.48 µM. On to `Cc1nc(N)nc(-c2c(Nc3ccn(C)n3)nc3ccc(-c4ccc(S(C)(=O)=O)cc4)cn23)n1` [Cpd 354], for which the half-inhibitory concentration (IC50) was 0.77 µM.
